In US20240317776A1, “SOLID FORMS OF 4-(3,3-DIFLUORO-2,2-DIMETHYL-PROPANOYL)-3,5-DIHYDRO-2H-PYRIDO[3,4-F][1,4]OXAZEPINE-9-CARBONITRILE” (Denali Therapeutics Inc., priority 2022, published 2024):

Assays:
Format in all cases: physicochemical
[1] = Dynamic vapor sorption (DVS)
Description: DVS was measured via a SMS (Surface Measurement Systems) DVS Intrinsic. The relative humidity at 25° C. were calibrated against deliquescence point of LiCl, Mg(NO3)2 and KCl.
(onset temperature). Considering the low TGA weight loss and single sharp DSC endotherm, Form A was postulated to be an anhydrate. […] The HPLC purity of starting material was measured as 99.78 area % (see chromatogram of FIG. 6) and the impurity summary is listed in Table 2.

[2] = Physical and chemical stability of solid on storage (XRPD, HPLC purity)
Description: To evaluate the physical and chemical stability, Compound (1) Form A was stored in 3 conditions (40° C./75% RH; 25° C./60% RH; and 60° C.) for one and four weeks.

[3] = Kinetic solubility in bio-relevant media and H2O; settings: for Final Form: 37° C.
Description: Solids were suspended in FaSSIF, FeSSIF, SGF and H2O with target conc. of ˜10 mg/mL. The suspensions were agitated on a rolling incubator at 25 rpm (in the incubator set at 37° C.) for 1, 4 and 24 hrs. At each time point, 1 mL of the suspension was pipetted out for centrifugation at 15000 rpm (3 min) and filtration through 0.45 μm membrane to obtain supernatant for HPLC solubility and pH tests, the residual solids were analyzed by XRPD.

[4] = 24-Hrs solubility in pH buffers; settings: for Final Form: 24 hrs
Description: 24-Hrs solubility of Form A was measured in pH buffers (i.e., pH 2.0, 4.0, 6.0, 7.0, 8.0) at RT. Solids were suspended in pH buffers with target conc. of ˜10 mg/mL.

[5] = Solution stability in pH buffers; settings: 37° C.
Description: Solution stability study was performed in pH 2.0/4.0/6.0/7.0 (24 hrs) and pH 8.0 (24 hrs and 96 hrs) buffers. Solids were dissolved with pH buffers with target conc. of ˜0.5 mg/ml to form clear solutions and stored at 37° C. for 24 hrs or 96 hrs.

[6] = all conditions (40° C./75% RH, 25° C./60% RH, 60° C.; one and four weeks)
[7] = pH 7.0 (50 mM Phosphate), 24 hrs
[8] = pH 8.0 (50 mM Phosphate), 24 hrs
[9] = pH 8.0 (50 mM Phosphate), 96 hrs

SMILES: CC(C)(C(=O)N1CCOc2c(C#N)cncc2C1)C(F)F [Form A, 4-(3,3-difluoro-2,2-dimethyl-propanoyl)-3,5-dihydro-2H-pyrido[3,4-f][1,4]oxazepine-9-carbonitrile]
- water uptake (DVS) ([1]; 25° C./80% RH): 0.024%
- form change after DVS test (XRPD) ([1]; after DVS test): no form change
- API (RRT 1.00) ([2]; 1 week, 25° C./60% RH): 99.92 % Area
- Description ([2]; 1 week, 25° C./60% RH): White powder
- Final Form ([2]; 1 week, 25° C./60% RH): Form A
- Imp.1 (RRT 0.68) ([2]; 1 week, 25° C./60% RH): 0.08 % Area
- Purity vs. initial (%) ([2]; 1 week, 25° C./60% RH): 100.0%
- API (RRT 1.00) ([2]; 1 week, 40° C./75% RH): 99.89 % Area
- Description ([2]; 1 week, 40° C./75% RH): White powder
- Final Form ([2]; 1 week, 40° C./75% RH): Form A
- Imp.1 (RRT 0.68) ([2]; 1 week, 40° C./75% RH): 0.11 % Area
- Purity vs. initial (%) ([2]; 1 week, 40° C./75% RH): 100.0%
- API (RRT 1.00) ([2]; 1 week, 60° C.): 99.90 % Area
- Description ([2]; 1 week, 60° C.): White powder
- Final Form ([2]; 1 week, 60° C.): Form A
- Imp.1 (RRT 0.68) ([2]; 1 week, 60° C.): 0.10 % Area
- Purity vs. initial (%) ([2]; 1 week, 60° C.): 100.0%
- API (RRT 1.00) ([2]; 4 weeks, 25° C./60% RH): 99.90 % Area
- Description ([2]; 4 weeks, 25° C./60% RH): White powder
- Final Form ([2]; 4 weeks, 25° C./60% RH): Form A
- Imp.1 (RRT 0.68) ([2]; 4 weeks, 25° C./60% RH): 0.10 % Area
- Purity vs. initial (%) ([2]; 4 weeks, 25° C./60% RH): 100.0%
- API (RRT 1.00) ([2]; 4 weeks, 40° C./75% RH): 99.90 % Area
- Description ([2]; 4 weeks, 40° C./75% RH): White powder
- Final Form ([2]; 4 weeks, 40° C./75% RH): Form A
- Imp.1 (RRT 0.68) ([2]; 4 weeks, 40° C./75% RH): 0.10 % Area
- Purity vs. initial (%) ([2]; 4 weeks, 40° C./75% RH): 100.0%
- API (RRT 1.00) ([2]; 4 weeks, 60° C.): 99.90 % Area
- Description ([2]; 4 weeks, 60° C.): White powder
- Final Form ([2]; 4 weeks, 60° C.): Form A
- Imp.1 (RRT 0.68) ([2]; 4 weeks, 60° C.): 0.10 % Area
- Purity vs. initial (%) ([2]; 4 weeks, 60° C.): 100.0%
- HPLC purity change on storage [2, 6]: no obvious HPLC purity change
- form change on storage (XRPD) [2, 6]: no form change
- Final Form ([3]; FaSSIF (pH 6.5), 1 hr): Form A
- Final Form ([3]; FaSSIF (pH 6.5), 4 hr): Form A
- Final Form ([3]; FaSSIF (pH 6.5), 24 hr): Form A
- Final Form ([3]; FeSSIF (pH 5.0), 1 hr): Form A
- Final Form ([3]; FeSSIF (pH 5.0), 4 hr): Form A
- Final Form ([3]; FeSSIF (pH 5.0), 24 hr): Form A
- Final Form ([3]; H2O (pH 6.5), 1 hr): Form A
- Final Form ([3]; H2O (pH 6.5), 4 hr): Form A
- Final Form ([3]; H2O (pH 6.5), 24 hr): Form A
- Final Form ([3]; SGF (pH 1.8), 1 hr): Form A
- Final Form ([3]; SGF (pH 1.8), 4 hr): Form A
- Final Form ([3]; SGF (pH 1.8), 24 hr): Form A
- form change after kinetic solubility test (XRPD) ([3]; bio-relevant media or H2O): No form change
- Final Form ([4]; pH 2.0 (50 mM HCl—KCl)): Form A
- Final Form ([4]; pH 4.0 (50 mM Citrate)): Form A
- Final Form ([4]; pH 6.0 (50 mM Citrate)): Form A
- Final Form ([4]; pH 7.0 (50 mM Phosphate)): Form A
- Final Form ([4]; pH 8.0 (50 mM Phosphate)): Form A
- form change after equilibrium solubility evaluation (XRPD) ([4]; pH buffers): no form change
- API (RRT 1.00) ([5]; pH 2.0 (50 mM HCl—KCl), 24 hrs): 84.93 % Area
- Imp. 1 (RRT 0.66) ([5]; pH 2.0 (50 mM HCl—KCl), 24 hrs): 0.15 % Area
- Imp. 1 (RRT 0.70) ([5]; pH 2.0 (50 mM HCl—KCl), 24 hrs): 0.67 % Area
- Imp. 1 (RRT 0.76) ([5]; pH 2.0 (50 mM HCl—KCl), 24 hrs): 14.25 % Area
- Imp. 1 (RRT 1.05) ([5]; pH 2.0 (50 mM HCl—KCl), 24 hrs): — (—: <0.05 area %)
- Purity vs. initial (%) ([5]; pH 2.0 (50 mM HCl—KCl), 24 hrs): 85.1%
- degradation in solution ([5]; pH 2.0 and pH 4.0 buffers, 24 hrs): Degradation was observed
- API (RRT 1.00) ([5]; pH 4.0 (50 mM Citrate), 24 hrs): 98.42 % Area
- Imp. 1 (RRT 0.66) ([5]; pH 4.0 (50 mM Citrate), 24 hrs): 0.15 % Area
- Imp. 1 (RRT 0.70) ([5]; pH 4.0 (50 mM Citrate), 24 hrs): — (—: <0.05 area %)
- Imp. 1 (RRT 0.76) ([5]; pH 4.0 (50 mM Citrate), 24 hrs): 0.38 % Area
- Imp. 1 (RRT 1.05) ([5]; pH 4.0 (50 mM Citrate), 24 hrs): 0.06 % Area
- Purity vs. initial (%) ([5]; pH 4.0 (50 mM Citrate), 24 hrs): 98.5%
- API (RRT 1.00) ([5]; pH 6.0 (50 mM Citrate), 24 hrs): 99.75 % Area
- Imp. 1 (RRT 0.66) ([5]; pH 6.0 (50 mM Citrate), 24 hrs): 0.13 % Area
- Imp. 1 (RRT 0.70) ([5]; pH 6.0 (50 mM Citrate), 24 hrs): — (—: <0.05 area %)
- Imp. 1 (RRT 0.76) ([5]; pH 6.0 (50 mM Citrate), 24 hrs): 0.06 % Area
- Imp. 1 (RRT 1.05) ([5]; pH 6.0 (50 mM Citrate), 24 hrs): 0.06 % Area
- Purity vs. initial (%) ([5]; pH 6.0 (50 mM Citrate), 24 hrs): 99.8%
- API (RRT 1.00) [5, 7]: 99.78 % Area
- Imp. 1 (RRT 0.66) [5, 7]: 0.15 % Area
- Imp. 1 (RRT 0.70) [5, 7]: — (—: <0.05 area %)
- Imp. 1 (RRT 0.76) [5, 7]: — (—: <0.05 area %)
- Imp. 1 (RRT 1.05) [5, 7]: 0.07 % Area
- Purity vs. initial (%) [5, 7]: 99.9%
- API (RRT 1.00) [5, 8]: 99.81 % Area
- Imp. 1 (RRT 0.66) [5, 8]: 0.13 % Area
- Imp. 1 (RRT 0.70) [5, 8]: — (—: <0.05 area %)
- Imp. 1 (RRT 0.76) [5, 8]: — (—: <0.05 area %)
- Imp. 1 (RRT 1.05) [5, 8]: 0.06 % Area
- Purity vs. initial (%) [5, 8]: 100.0%
- API (RRT 1.00) [5, 9]: 99.83 % Area
- Imp. 1 (RRT 0.66) [5, 9]: 0.13 % Area
- Imp. 1 (RRT 0.70) [5, 9]: — (—: <0.05 area %)
- Imp. 1 (RRT 0.76) [5, 9]: — (—: <0.05 area %)
- Imp. 1 (RRT 1.05) [5, 9]: 0.04 % Area
- Purity vs. initial (%) [5, 9]: 100.0%
